Measured values published in the NIST ThermoML archive (doi:10.1021/je400055v).

Test: xn = mol fraction of the nth substance listed
Details: Liquid, Vibrating tube method

CCCCCCCCCCC [undecane] + CCCCCCC
Details	mass density [kg/m3]
323.12 K, 7000 kPa, x2 = 0.7482	685.4
323.12 K, 8000 kPa, x2 = 0.7482	686.4
323.12 K, 8001 kPa, x2 = 0.05	722.8
323.12 K, 9000 kPa, x2 = 0.05	723.6
323.12 K, 9000 kPa, x2 = 0.7482	687.3
323.12 K, 10000 kPa, x2 = 0.05	724.5
323.12 K, 10000 kPa, x2 = 0.7482	688.3
323.12 K, 11000 kPa, x2 = 0.05	725.3
323.12 K, 11000 kPa, x2 = 0.7482	689.2
323.12 K, 12000 kPa, x2 = 0.05	726.1
323.12 K, 12000 kPa, x2 = 0.7482	690.1
323.12 K, 13000 kPa, x2 = 0.05	726.8
323.12 K, 13000 kPa, x2 = 0.7482	691.1
323.12 K, 14000 kPa, x2 = 0.05	727.6
323.12 K, 14000 kPa, x2 = 0.7482	691.9
323.12 K, 15000 kPa, x2 = 0.05	728.4
323.12 K, 15000 kPa, x2 = 0.7482	692.8
323.12 K, 16000 kPa, x2 = 0.05	729.1
323.12 K, 16000 kPa, x2 = 0.7482	693.7
323.12 K, 17000 kPa, x2 = 0.05	729.9
323.12 K, 17000 kPa, x2 = 0.7482	694.5
323.12 K, 18000 kPa, x2 = 0.05	730.6
323.12 K, 18000 kPa, x2 = 0.7482	695.4
323.12 K, 19000 kPa, x2 = 0.05	731.3
323.12 K, 19000 kPa, x2 = 0.7482	696.2
323.12 K, 20000 kPa, x2 = 0.05	732
323.12 K, 20000 kPa, x2 = 0.7482	697
323.12 K, 21000 kPa, x2 = 0.05	732.7
323.12 K, 21000 kPa, x2 = 0.7482	697.8
323.12 K, 22000 kPa, x2 = 0.7482	698.6
323.12 K, 22001 kPa, x2 = 0.05	733.4
323.12 K, 23000 kPa, x2 = 0.05	734.1
323.12 K, 23000 kPa, x2 = 0.7482	699.4
323.12 K, 24000 kPa, x2 = 0.05	734.8
323.12 K, 24000 kPa, x2 = 0.7482	700.1
323.12 K, 25000 kPa, x2 = 0.05	735.4
323.12 K, 25000 kPa, x2 = 0.7482	700.9
323.15 K, 1000 kPa, x2 = 0.2346	708.9
323.15 K, 2000 kPa, x2 = 0.2346	709.9
323.15 K, 3000 kPa, x2 = 0.2346	710.8
323.15 K, 4001 kPa, x2 = 0.2346	711.7
323.15 K, 5001 kPa, x2 = 0.2346	712.6
323.15 K, 6001 kPa, x2 = 0.2346	713.5
323.15 K, 7001 kPa, x2 = 0.2346	714.4
323.15 K, 8000 kPa, x2 = 0.2346	715.2
323.15 K, 9000 kPa, x2 = 0.2346	716.1
323.15 K, 10000 kPa, x2 = 0.2346	716.9
323.15 K, 11000 kPa, x2 = 0.2346	717.7
323.15 K, 12000 kPa, x2 = 0.2346	718.5
323.15 K, 13000 kPa, x2 = 0.2346	719.4
323.15 K, 14000 kPa, x2 = 0.2346	720.1
323.15 K, 15000 kPa, x2 = 0.2346	720.9
323.15 K, 16001 kPa, x2 = 0.2346	721.7
323.15 K, 17000 kPa, x2 = 0.2346	722.5
323.15 K, 18000 kPa, x2 = 0.2346	723.2
323.15 K, 19000 kPa, x2 = 0.2346	724
323.15 K, 20000 kPa, x2 = 0.2346	724.7
323.15 K, 21033 kPa, x2 = 0.2346	725.4
323.15 K, 22034 kPa, x2 = 0.2346	726.1
323.15 K, 23036 kPa, x2 = 0.2346	726.9
323.15 K, 24037 kPa, x2 = 0.2346	727.5
323.15 K, 25039 kPa, x2 = 0.2346	728.2
333.01 K, 1001 kPa, x2 = 0.9511	654.4
333.01 K, 2000 kPa, x2 = 0.9511	655.7
333.01 K, 3000 kPa, x2 = 0.9511	656.9
333.01 K, 4000 kPa, x2 = 0.9511	658.2
333.01 K, 5000 kPa, x2 = 0.9511	659.4
333.01 K, 6000 kPa, x2 = 0.9511	660.5
333.01 K, 7000 kPa, x2 = 0.9511	661.7
333.01 K, 8000 kPa, x2 = 0.9511	662.8
333.01 K, 9000 kPa, x2 = 0.9511	663.9
333.01 K, 10000 kPa, x2 = 0.9511	665
333.01 K, 11000 kPa, x2 = 0.9511	666.1
333.01 K, 12000 kPa, x2 = 0.9511	667.1
333.01 K, 13000 kPa, x2 = 0.9511	668.2
333.01 K, 14001 kPa, x2 = 0.9511	669.2
333.01 K, 15001 kPa, x2 = 0.9511	670.2
333.01 K, 16000 kPa, x2 = 0.9511	671.2
333.01 K, 17001 kPa, x2 = 0.9511	672.1
333.01 K, 18001 kPa, x2 = 0.9511	673.1
333.01 K, 19000 kPa, x2 = 0.9511	674
333.01 K, 20000 kPa, x2 = 0.9511	674.9
333.01 K, 21001 kPa, x2 = 0.9511	675.8
333.01 K, 22000 kPa, x2 = 0.9511	676.7
333.01 K, 23001 kPa, x2 = 0.9511	677.6
333.01 K, 24000 kPa, x2 = 0.9511	678.5
333.01 K, 25000 kPa, x2 = 0.9511	679.3
333.04 K, 2001 kPa, x2 = 0.5063	688
333.04 K, 3000 kPa, x2 = 0.5063	689
333.04 K, 4000 kPa, x2 = 0.5063	690.1
333.04 K, 5000 kPa, x2 = 0.5063	691.1
333.04 K, 6000 kPa, x2 = 0.5063	692.1
333.04 K, 7000 kPa, x2 = 0.5063	693.1
